Test results reported in PubChem BioAssay AID248 (DTP/NCI, 2004).
Where “and” joins values, the source holds several entries; their conditions need not be identical. Equal values may be shown once. Inconclusive results and toxic doses are left out.

Test system: L1210 leukemia ip in BDF1 mice, survival T/C
Assay: NCI In Vivo Anticancer Drug Screen. Data for tumor model L1210 Leukemia (intraperitoneal) in B6D2F1 (BDF1) mice
Details: endpoint: mean survival time, higher = longer survival
Summary of the method: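 Ratio derived from survival: compound-dosed mice over vehicle-dosed mice, all bearing a transplantable tumor.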

[1] = dose: 50.0 mg/kg/injection, schedule: Q01DX001 (ip), vehicle: carboxymethylcellulose (CMC)
[2] = dose: 25.0 mg/kg/injection, schedule: Q04DX003 (ip), vehicle: saline
[3] = dose: 50.0 mg/kg/injection, schedule: Q04DX003 (ip), vehicle: saline
[4] = dose: 100.0 mg/kg/injection, schedule: Q04DX002 (ip), vehicle: Klucel (hydroxypropylcellulose) (HPC)
[5] = dose: 200.0 mg/kg/injection, schedule: Q04DX002 (ip), vehicle: Klucel (hydroxypropylcellulose) (HPC)
[6] = dose: 400.0 mg/kg/injection, schedule: Q04DX002 (ip), vehicle: Klucel (hydroxypropylcellulose) (HPC)
[7] = dose: 100.0 mg/kg/injection, schedule: Q01DX009 (ip), vehicle: Klucel (hydroxypropylcellulose) (HPC)
[8] = dose: 100.0 mg/kg/injection, schedule: Q01DX009 (ip), vehicle: saline with Tween-80
[9] = dose: 200.0 mg/kg/injection, schedule: Q01DX009 (ip), vehicle: saline with Tween-80
[10] = dose: 400.0 mg/kg/injection, schedule: Q01DX009 (ip), vehicle: saline with Tween-80
[11] = dose: 100.0 mg/kg/injection, schedule: Q01DX009 (ip), vehicle: saline
[12] = dose: 400.0 mg/kg/injection, schedule: Q01DX009 (ip), vehicle: saline

CCCCSSC(Cl)(Cl)Cl was tested, and the T/C (dose: 6.25 mg/kg/injection, schedule: Q01DX009 (ip), vehicle: carboxymethylcellulose (CMC)) was 96 % of control and 104 % of control, the T/C (dose: 12.5 mg/kg/injection, schedule: Q01DX001 (ip), vehicle: carboxymethylcellulose (CMC)) was 98 % of control and the T/C (dose: 12.5 mg/kg/injection, schedule: Q01DX009 (ip), vehicle: carboxymethylcellulose (CMC)) was 101 % of control and 89 % of control. For the same compound, the T/C (dose: 12.5 mg/kg/injection, schedule: Q04DX003 (ip), vehicle: carboxymethylcellulose (CMC)) was 96 % of control, the T/C (dose: 25.0 mg/kg/injection, schedule: Q01DX001 (ip), vehicle: carboxymethylcellulose (CMC)) was 95 % of control and the T/C (dose: 25.0 mg/kg/injection, schedule: Q01DX009 (ip), vehicle: carboxymethylcellulose (CMC)) was 96 % of control. For the same compound, the T/C (dose: 25.0 mg/kg/injection, schedule: Q04DX002 (ip), vehicle: carboxymethylcellulose (CMC)) was 95 % of control and 107 % of control, the T/C (dose: 25.0 mg/kg/injection, schedule: Q04DX003 (ip), vehicle: carboxymethylcellulose (CMC)) was 96 % of control and the T/C [1] was 88 % of control. For the same compound, the T/C (dose: 50.0 mg/kg/injection, schedule: Q04DX002 (ip), vehicle: carboxymethylcellulose (CMC)) was 95 % of control and 101 % of control, the T/C (dose: 50.0 mg/kg/injection, schedule: Q04DX003 (ip), vehicle: carboxymethylcellulose (CMC)) was 103 % of control and 91 % of control and the T/C (dose: 200.0 mg/kg/injection, schedule: Q04DX002 (ip), vehicle: carboxymethylcellulose (CMC)) was 86 % of control.

With COC(=O)/C(=C\c1ccc([N+](=O)[O-])s1)C(C)=O the T/C (dose: 6.25 mg/kg/injection, schedule: Q01DX005 (ip), vehicle: saline with Tween-80) was 92 % of control, the T/C (dose: 12.5 mg/kg/injection, schedule: Q01DX005 (ip), vehicle: saline with Tween-80) was 94 % of control and the T/C (dose: 12.5 mg/kg/injection, schedule: Q04DX003 (ip), vehicle: saline) was 94 % of control. For the same compound, the T/C [2] was 96 % of control and the T/C [3] was 86 % of control.

COc1ccc(OC)c2[nH]c(=O)c(-c3ccccc3)nc12 was tested, and the T/C (dose: 100.0 mg/kg/injection, schedule: Q04DX003 (ip), vehicle: saline with Tween-80) was 97 % of control, the T/C (dose: 200.0 mg/kg/injection, schedule: Q04DX003 (ip), vehicle: saline with Tween-80) was 95 % of control and the T/C (dose: 400.0 mg/kg/injection, schedule: Q04DX003 (ip), vehicle: saline with Tween-80) was 91 % of control.

In the case of Nc1nc(NCCCc2ccccc2)cc(=O)[nH]1, the T/C (dose: 25.0 mg/kg/injection, schedule: Q04DX003 (ip), vehicle: saline with Tween-80) is reported as 98 % of control and the T/C (dose: 50.0 mg/kg/injection, schedule: Q04DX003 (ip), vehicle: saline with Tween-80) is reported as 92 % of control.

In the case of CCCNC(=O)OC1CCS(=O)(=O)C1 (configuration not stated), the T/C [4] is reported as 95 % of control, the T/C [5] is reported as 100 % of control and the T/C [6] is reported as 95 % of control.

In the case of COC(=O)c1nccnc1N, the T/C (dose: 50.0 mg/kg/injection, schedule: Q01DX009 (ip), vehicle: Klucel (hydroxypropylcellulose) (HPC)) is reported as 94 % of control, the T/C (dose: 75.0 mg/kg/injection, schedule: Q01DX001 (ip), vehicle: alcohol) is reported as 108 % of control and the T/C [7] is reported as 97 % of control. The T/C (dose: 100.0 mg/kg/injection, schedule: Q04DX003 (ip), vehicle: Klucel (hydroxypropylcellulose) (HPC)) was 94 % of control, the T/C (dose: 150.0 mg/kg/injection, schedule: Q01DX001 (ip), vehicle: alcohol) was 105 % of control and the T/C (dose: 200.0 mg/kg/injection, schedule: Q01DX009 (ip), vehicle: Klucel (hydroxypropylcellulose) (HPC)) was 108 % of control. The T/C (dose: 200.0 mg/kg/injection, schedule: Q04DX003 (ip), vehicle: Klucel (hydroxypropylcellulose) (HPC)) was 92 % of control, the T/C (dose: 300.0 mg/kg/injection, schedule: Q01DX001 (ip), vehicle: alcohol) was 100 % of control and the T/C (dose: 400.0 mg/kg/injection, schedule: Q04DX003 (ip), vehicle: Klucel (hydroxypropylcellulose) (HPC)) was 95 % of control.

Cc1ncc2n1C=CN(C(=O)c1ccc([N+](=O)[O-])cc1)C2O (configuration not stated) was tested, and the T/C (dose: 100.0 mg/kg/injection, schedule: Q01DX009 (ip), vehicle: water) was 98 % of control, the T/C (dose: 200.0 mg/kg/injection, schedule: Q01DX009 (ip), vehicle: water) was 98 % of control and the T/C (dose: 400.0 mg/kg/injection, schedule: Q01DX009 (ip), vehicle: water) was 93 % of control.

For CC(=O)COc1ccccc1NC(C)=O, the T/C [8] was 101 % of control, the T/C [9] was 106 % of control and the T/C [10] was 109 % of control.

For O=S(=O)(F)c1cc(Cl)c(S)c(Cl)c1, the T/C [7] was 100 % of control.

In the case of CC(=O)CC(=O)C(F)(F)F.CC(=O)CC(=O)C(F)(F)F.CC(=O)CC(=O)C(F)(F)F.CC(=O)CC(=O)C(F)(F)F.[Th], the T/C (dose: 100.0 mg/kg/injection, schedule: Q01DX005 (ip), vehicle: gum acacia) is reported as 90 % of control, the T/C (dose: 100.0 mg/kg/injection, schedule: Q04DX002 (ip), vehicle: gum acacia) is reported as 96 % of control and the T/C (dose: 200.0 mg/kg/injection, schedule: Q01DX005 (ip), vehicle: gum acacia) is reported as 93 % of control. The T/C (dose: 200.0 mg/kg/injection, schedule: Q01DX009 (ip), vehicle: gum acacia) was 101 % of control, the T/C (dose: 200.0 mg/kg/injection, schedule: Q04DX002 (ip), vehicle: gum acacia) was 96 % of control and the T/C (dose: 400.0 mg/kg/injection, schedule: Q01DX005 (ip), vehicle: gum acacia) was 90 % of control. For the same compound, the T/C (dose: 400.0 mg/kg/injection, schedule: Q01DX009 (ip), vehicle: gum acacia) was 94 % of control and the T/C (dose: 400.0 mg/kg/injection, schedule: Q04DX002 (ip), vehicle: gum acacia) was 107 % of control.

CC(CO)(CO)N=Cc1cccc([N+](=O)[O-])c1 was tested, and the T/C [1] was 103 % of control, the T/C (dose: 100.0 mg/kg/injection, schedule: Q01DX001 (ip), vehicle: carboxymethylcellulose (CMC)) was 103 % of control and the T/C (dose: 200.0 mg/kg/injection, schedule: Q01DX001 (ip), vehicle: carboxymethylcellulose (CMC)) was 103 % of control. The T/C (dose: 400.0 mg/kg/injection, schedule: Q01DX001 (ip), vehicle: carboxymethylcellulose (CMC)) was 97 % of control.

Nc1ccccc1CCc1ccccc1 was tested, and the T/C [4] was 103 % of control, the T/C [5] was 100 % of control and the T/C [6] was 100 % of control.

COc1cc(OC(C)=O)c(OC(C)=O)cc1OC(C)=O was tested, and the T/C [8] was 98 % of control, the T/C [9] was 96 % of control and the T/C [10] was 100 % of control.

For CN(C)CCN(C)C(=O)C(O)(c1ccccc1)c1ccccc1, the T/C (dose: 100.0 mg/kg/injection, schedule: Q04DX002 (ip), vehicle: saline with Tween-80) was 97 % of control, the T/C (dose: 200.0 mg/kg/injection, schedule: Q04DX002 (ip), vehicle: saline with Tween-80) was 97 % of control and the T/C (dose: 400.0 mg/kg/injection, schedule: Q04DX002 (ip), vehicle: saline with Tween-80) was 97 % of control.

With CCN(CC)CCOC(=O)c1ccc(N)cc1 the T/C (dose: 12.5 mg/kg/injection, schedule: Q01DX009 (ip), vehicle: saline) was 97 % of control, the T/C (dose: 25.0 mg/kg/injection, schedule: Q01DX009 (ip), vehicle: saline) was 103 % of control and the T/C [2] was 101 % of control. The T/C (dose: 50.0 mg/kg/injection, schedule: Q01DX009 (ip), vehicle: saline) was 100 % of control and 95 % of control, the T/C [3] was 111 % of control and the T/C [11] was 100 % of control and 101 % of control. The T/C (dose: 100.0 mg/kg/injection, schedule: Q04DX003 (ip), vehicle: saline) was 101 % of control.

In the case of Clc1ncnc2c1ncn2C1CCCO1 (configuration not stated), the T/C (dose: 100.0 mg/kg/injection, schedule: Q01DX001 (ip), vehicle: saline) is reported as 97 % of control, the T/C (dose: 178.0 mg/kg/injection, schedule: Q01DX009 (ip), vehicle: saline) is reported as 113 % of control and the T/C (dose: 200.0 mg/kg/injection, schedule: Q01DX001 (ip), vehicle: saline) is reported as 96 % of control. For the same compound, the T/C (dose: 267.0 mg/kg/injection, schedule: Q01DX009 (ip), vehicle: saline) was 113 % of control, the T/C (dose: 400.0 mg/kg/injection, schedule: Q01DX001 (ip), vehicle: saline) was 112 % of control and the T/C [12] was 154 % of control.

In the case of Nc1ccccc1O, the T/C (dose: 12.5 mg/kg/injection, schedule: Q04DX003 (ip), vehicle: Klucel (hydroxypropylcellulose) (HPC)) is reported as 100 % of control, the T/C (dose: 25.0 mg/kg/injection, schedule: Q04DX003 (ip), vehicle: Klucel (hydroxypropylcellulose) (HPC)) is reported as 100 % of control and the T/C (dose: 50.0 mg/kg/injection, schedule: Q04DX003 (ip), vehicle: Klucel (hydroxypropylcellulose) (HPC)) is reported as 92 % of control. For the same compound, the T/C [11] was 110 % of control, the T/C (dose: 200.0 mg/kg/injection, schedule: Q01DX009 (ip), vehicle: saline) was 105 % of control and the T/C [12] was 108 % of control. The T/C (dose: 600.0 mg/kg/injection, schedule: Q01DX009 (ip), vehicle: saline) was 92 % of control.
